Patent US5270316A, “Condensed purine derivatives” (Kyowa Hakko Kogyo Co., Ltd., priority 1989, dated 1993)
pIC50: −log10 of the molar value. Where two headings read alike, the source gives them in different places.

Assays:
[1] = Acute toxicity, minimum lethal dose (oral, mice); format: in vivo; settings: male dd-mice, mortality observed for seven days
Experimental: The compounds were orally administrated to male dd-mice weighing 20±1 g. Minimum lethal dose (MLD) was determined by observing the mortality for seven days after the administration.

[2] = Diuretic activity (oral, urine collected for 6 hours); format: in vivo, rat (Wistar male rats); settings: Rattus norvegicus, rats; for response vs control in vivo at 6.25 mg/kg: 6.25 mg/kg oral; for response vs control in vivo at 25 mg/kg: 25 mg/kg oral; for response vs control in vivo at 1.6 mg/kg: 1.6 mg/kg oral
Experimental: Wistar male rats weighing 150 to 300 g were used after they were fasted for 18 hours. A test compound or saline (control) was orally administered to rats and urine was collected for 6 hours. The test was performed using 3 groups per the test compound, and each group consists of 3 animals. The urine was metered by a measuring cylinder and electrolytes (Na^+ and K^+) in the urine were assayed with a flame photometer (model […] manufactured by Hitachi Ltd.). Parameters in Table 3 are all expressed by relative value for control.

trachea = assay: Passive Schultz-Dale reaction (bronchodilatory effects), relaxation of sensitized trachea strips; set-up: species or system guinea pig (Hartley male); settings: Cavia porcellus; sensitized guinea pig trachea, EWA 1 μg/ml, 37° C.; read-out: Passive S-D reaction IC50 (concentration of 50% relaxation rate)
Experimental: Guinea pigs were passively sensitized as follows. […] After 24 hours, the guinea pigs were stunned and exsanguinated, and then trachea was excised. The zig-zag strips of the trachea were prepared by the method of Emmerson and Mackay [J. Pharm. […] After the contraction curves reached plateau the compounds were successively added in order to get cumulative concentration-relaxation curves.

[3] = test system: Platelet Activating Factor (PAF)-induced mortality; assay: Inhibition of Platelet Activating Factor (PAF)-induced mortality; format: in vivo, mouse (male dd mice); settings: Mus musculus, 2 h, oral, mice, one hour before PAF 40 μg/kg i.v., p<0.05 vs control, read-out: PAF-induced mortality inhibition, minimum effective dose (MED)
Experimental: The experiment was performed by a minor modification of method of Carlson et al. [Agents and Actions, 21, 379 (1987)]. Groups each consisting of 10 male dd mice (weighing 28 to 32 g) were used, and 100 mg/kg of test compound or a saline (control) was orally administrated. One hour after the administration of test compound, 40 μg/kg of PAF (manufactured by Avanti Polar Lipids Co., Ltd.) was intravenously administered. Two hours after PAF injection, the mortality rate of the animals was observed.

[4] = test system: Glycerol-induced Renal Deficient Model; assay: Renal protecting activity (glycerol-induced renal deficient model): serum creatinine and urea nitrogen; format: in vivo, rat (Wistar male rats); settings: 10 mg/kg intraperitoneal, rats, 24 hours after glycerol injection, own control beside each compound; for Creatinine in serum, glycerol treated, test compound administrated: normal control 0.50; for Urea nitrogen in serum, glycerol treated, test compound administrated: normal control 15.2
Experimental: It is well known that subcutaneous or intramuscular administration of glycerol to rat induce acute renal insufficiency characterized by renal tubular disturbance [Can J. Physiol.
Wistar male rats (fasted both food and water for 18 hours) were used. A test compound or saline (control) was intraperitoneally administered (dose: 10 mg/kg) to rats. After 30 minutes rats were anesthesized with ether and the back skin was picked up and 0.8 ml/100 g of 50% glycerol was subcutaneously administered. 24 hours after the glycerol injection, the rats were anesthesized with ether and 5 ml of the blood was collected from the descending aorta. To obtain the serum, after allowing it to stand for 30 minutes or longer, the blood sample was centrifuged at 3000 rpm for 10 minutes. Creatinine in the serum sample was determined using autoanalyzer (AU510, Olympus) or clinical analysis kit of creatinine (Creatinine Test Wako; by Wako Pure Chemical Ind., Japan). Urea nitrogen in the serum was determined using autoanalyzer (AU510; made by Olympus Optical Co., Ltd, Japan) or clinical analysis kit of urea nitrogen (Urea nitrogen test wako; by Wako Pure Chemical Ind., Japan).

[5] = relative value for control (1.00), read-out: Na+/K+
[6] = relative value for control, read-out: Excretion of K+
[7] = relative value for control, read-out: Excretion of Na+
[8] = relative value for control, read-out: Urine volume

Structure (SMILES) | Minimum lethal dose (MLD) [1] [mg/kg] | response vs control in vivo at 25 mg/kg [2, 5] [%] | response vs control in vivo at 25 mg/kg [2, 6] [%] | response vs control in vivo at 25 mg/kg [2, 7] [%] | response vs control in vivo at 25 mg/kg [2, 8] [%] | pIC50 (trachea) | minimal effective dose [3] [mg/kg] | Creatinine in serum, glycerol treated, test compound administrated [4] [mg/dL] | Urea nitrogen in serum, glycerol treated, test compound administrated [4] [mg/dL] | other results
CCCN1C(=O)N2CC(C)(C)N=C2c2[nH]c(C3CCCC3)nc21 [14 Sa] | > 300 | 200 | 31 | 162 | 145 | 4.96 | 100 | 2.62 ± 0.40 | 94.8 ± 14.3 | response vs control in vivo at 6.25 mg/kg [2, 5]: 123%; response vs control in vivo at 6.25 mg/kg [2, 6]: 43%; response vs control in vivo at 6.25 mg/kg [2, 7]: 75%; response vs control in vivo at 6.25 mg/kg [2, 8]: 113%
CCCN1C(=O)N2CC(CC)N=C2c2c1ncn2C (centres unmarked) [Compound 4, 8-Ethyl-1-methyl-4-n-propyl-1,4,7,8-tetrahydro-5H-imidazo[2,1-i]purin-5-one] | > 300 | – | – | – | – | 7.44 | > 100 | – | – | –
CCCN1C(=O)N2CC(c3ccccc3)N=C2c2[nH]c(C3CCCC3)nc21 (centres unmarked) [15 Sa] | > 300 | 151 | 26 | 90 | 95 | < 4.40 | 100 | 2.34 ± 0.12 | 101.8 ± 11.8 | response vs control in vivo at 6.25 mg/kg [2, 5]: 232%; response vs control in vivo at 6.25 mg/kg [2, 6]: 9%; response vs control in vivo at 6.25 mg/kg [2, 7]: 153%; response vs control in vivo at 6.25 mg/kg [2, 8]: 137%
CCCN1C(=O)N2CC(Cc3ccccc3)N=C2c2[nH]c(C3CCCC3)nc21 (centres unmarked) [12 Sa] | > 300 | – | – | – | – | – | – | – | – | response vs control in vivo at 1.6 mg/kg [2, 5]: 152%; response vs control in vivo at 1.6 mg/kg [2, 6]: 33%; response vs control in vivo at 1.6 mg/kg [2, 7]: 102%; response vs control in vivo at 1.6 mg/kg [2, 8]: 159%
CCCN1C(=O)N2C(=NCC2CC)c2[nH]c(C3CCCC3)nc21 (centres unmarked) [18 Sa] | > 300 | 120 | 37 | 65 | 92 | – | – | 2.85 ± 0.33 | 101.2 ± 9.9 | –
CCCN1C(=O)N2CCN=C2c2[nH]c(C3CCCC3)nc21 [Compound 6, 2-Cyclopentyl-4-n-propyl-1,4,7,8-tetrahydro-5H-imidazo[2,1-i]purin-5-one] | – | – | – | – | – | < 4.40 | 50 | 1.81 ± 0.12 | – | response vs control in vivo at 1.6 mg/kg [2, 5]: 155%; response vs control in vivo at 1.6 mg/kg [2, 6]: 30%; response vs control in vivo at 1.6 mg/kg [2, 7]: 102%; response vs control in vivo at 1.6 mg/kg [2, 8]: 121%
O=C1N2CCN=C2c2[nH]cnc2N1Cc1ccccc1 [Compound 9, 4-Benzyl-1,4,7,8-tetrahydro-5H-imidazo[2,1-i]purin-5-one] | – | – | – | – | – | < 4.40 | 100 | – | – | –
CCCN1C(=O)N2CC(CC)N=C2c2[nH]c(C3CCCC3)nc21 (centres unmarked) [Compound 8, 2-Cyclopentyl-8-ethyl-4-n-propyl-1,4,7,8-tetrahydro-5H-imidazo[2,1-i]purin-5-one] | – | – | – | – | – | 4.14 | – | 3.17 ± 0.32 | 121.2 ± 9.0 | response vs control in vivo at 6.25 mg/kg [2, 5]: 145%; response vs control in vivo at 6.25 mg/kg [2, 6]: 1%; response vs control in vivo at 6.25 mg/kg [2, 7]: 46%; response vs control in vivo at 6.25 mg/kg [2, 8]: 42%
CCCN1C(=O)N2CC(C)N=C2c2[nH]c(C3CCCC3)nc21 (centres unmarked) [16 Sa] | – | – | – | – | – | – | – | 2.38 ± 0.24 | 80.9 ± 9.5 | response vs control in vivo at 1.6 mg/kg [2, 5]: 152%; response vs control in vivo at 1.6 mg/kg [2, 6]: 31%; response vs control in vivo at 1.6 mg/kg [2, 7]: 99%; response vs control in vivo at 1.6 mg/kg [2, 8]: 80%
Cn1cnc2nc3n(c(=O)c21)CCCC3 [Compound 25, 1-Methyl-1,5,6,7,8,10-hexahydropyrido[1,2-a]purin-10-one] | > 300 | – | – | – | – | – | – | – | – | –
NS(=O)(=O)c1cc(C(=O)O)c(NCc2ccco2)cc1Cl [Furosemide, reference compound] | – | 107 | – | – | 75 | – | – | 4.17 ± 0.41 | 150.3 ± 13.7 | –
Cn1c(=O)c2[nH]cnc2n(C)c1=O [Aminophylline, reference compound] | – | – | – | – | – | – | – | 1.72 ± 0.07 | 30.6 ± 2.0 | –
CCCC1CN2C(=O)N(CCC)c3nc(C4CCCC4)[nH]c3C2=N1 (centres unmarked) [17 Sa] | > 300 | – | – | – | – | – | – | 2.35 ± 0.11 | 88.0 ± 4.9 | response vs control in vivo at 6.25 mg/kg [2, 5]: 291%; response vs control in vivo at 6.25 mg/kg [2, 6]: 18%; response vs control in vivo at 6.25 mg/kg [2, 7]: 158%; response vs control in vivo at 6.25 mg/kg [2, 8]: 138%
CCCN1C(=O)N2CCN=C2c2c1nc(C1CCCC1)n2C [Compound 7, 2-Cyclopentyl-1-methyl-4-n-propyl-1,4,7,8-tetrahydro-5H-imidazo[2,1-i]purin-5-one] | – | 137 | 56 | 114 | 128 | 5.09 | > 100 | 1.70 ± 0.17 | 64.3 ± 7.1 | –
O=C1N2CCN=C2c2[nH]cnc2N1Cc1ccccc1 [9 Sa] | > 300 | 126 | 31 | 65 | 88 | – | – | – | – | –
CCCN1C(=O)N2C(=NCC2c2ccccc2)c2[nH]c(C3CCCC3)nc21 (centres unmarked) [11 Sa] | > 300 | – | – | – | – | – | – | – | – | –
CCCN1C(=O)N2C(=NCC2C)c2[nH]c(C3CCCC3)nc21 (centres unmarked) [19 Sa] | > 300 | 143 | 31 | 87 | 111 | – | – | – | – | –
CCCN1C(=O)N2CCN=C2c2c1ncn2C [Compound 1, 1-Methyl-4-n-propyl-1,4,7,8-tetrahydro-5H-imidazo[2,1-i]purin-5-one] | > 300 | – | – | – | – | 8.52 | > 100 | 1.94 ± 0.16 | – | –
O=c1c2[nH]cnc2nc2n1CCCC2 [Compound 24, 1,5,6,7,8,10-Hexahydropyrido[1,2-a]purin-10-one] | > 300 | – | – | – | – | – | – | – | – | –
